According to patent publication US9708314B2, “Heterocyclic amide compound” (NISSAN CHEMICAL INDUSTRIES, LTD., priority 2013, dated 2017):

How the values were obtained:
Type in all cases: in vivo
[1] = tested on: directly sowed Oryza sativa; experiment: Test Example 3: effect on crop by application to foliage (Wagner pot, water depth 0.1-0.5 cm); details: Nineteenth Table, application to foliage
Procedure, shortened: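 Post-emergence foliar application at a stated g/ha rate to plants grown 14 days from seed in alluvial soil, greenhouse 25–30 °C. Visual score after 3 weeks: 0 (≤5% effect) through 5 (≥90%).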

Apera spica-venti. = experiment: Test Example 4: herbicidal effect by application to foliage (diluvial soil, plastic box); details: for L (Apera spica-venti.) herbicidal effect grade: foliage application, 320 g/ha
Procedure, shortened: (§1)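 Seeds sown in sterilized diluvial soil, covered ~1.5 cm, grown 14 days in greenhouse at 25° C. to 30° C. Emulsion formulation diluted in water to set rate (g/ha) and sprayed onto stems and leaves. Effect scored visually 3 weeks later on 0–5 scale (5 = ≥90% herbicidal ratio, 0 = ≤5%).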

Galium spurium = experiment: as above; details: for Q (Galium spurium) herbicidal effect grade: foliage application, 320 g/ha
Procedure, shortened: as §1

[2] = tested on: Echinochloa crus-galli var. crus-galli; experiment: as above; details: for H (Echinochloa crus-galli var. crus-galli) herbicidal effect grade: foliage application, 320 g/ha
Procedure, shortened: as §1

Veronica persica = experiment: as above; details: for R (Veronica persica) herbicidal effect grade: foliage application, 320 g/ha
Procedure, shortened: as §1

Chenopodium album = experiment: as above; details: for O (Chenopodium album) herbicidal effect grade: foliage application, 320 g/ha
Procedure, shortened: as §1

Avena fatua = experiment: as above; details: for I (Avena fatua) herbicidal effect grade: foliage application, 320 g/ha
Procedure, shortened: as §1

Digitaria ciliaris = experiment: as above; details: for F (Digitaria ciliaris) herbicidal effect grade: foliage application, 320 g/ha
Procedure, shortened: as §1

Amaranthus retroflexus = experiment: as above; details: for N (Amaranthus retroflexus) herbicidal effect grade: foliage application, 320 g/ha
Procedure, shortened: as §1

Setaria viridis = experiment: as above; details: for G (Setaria viridis) herbicidal effect grade: foliage application, 320 g/ha
Procedure, shortened: as §1

Stellaria media = experiment: as above; details: for P (Stellaria media) herbicidal effect grade: foliage application, 320 g/ha
Procedure, shortened: as §1

Alopecurus myosuroides = experiment: as above; details: for J (Alopecurus myosuroides) herbicidal effect grade: foliage application, 320 g/ha
Procedure, shortened: as §1

Lolium multiflorum Lam. = experiment: as above; details: for K (Lolium multiflorum Lam.) herbicidal effect grade: foliage application, 320 g/ha
Procedure, shortened: as §1

Abutilon theophrasti = experiment: as above; details: for M (Abutilon theophrasti) herbicidal effect grade: foliage application, 320 g/ha
Procedure, shortened: as §1

[3] = tested on: Beta vulgaris ssp. vulgaris; experiment: Test Example 4: effect on crop by application to foliage (diluvial soil, plastic box); details: for f (Beta vulgaris ssp. vulgaris) effect on crop grade: foliage application, 320 g/ha
Procedure, shortened: as §1

[4] = tested on: directly sowed Oryza sativa; experiment: as above; details: for d (directly sowed Oryza sativa) effect on crop grade: foliage application, 320 g/ha
Procedure, shortened: as §1

Zea mays = experiment: as above; details: for b (Zea mays) effect on crop grade: foliage application, 320 g/ha
Procedure, shortened: as §1

Glycine max = experiment: as above; details: for c (Glycine max) effect on crop grade: foliage application, 320 g/ha
Procedure, shortened: as §1

Triticum aestivum = experiment: as above; details: for e (Triticum aestivum) effect on crop grade: foliage application, 320 g/ha
Procedure, shortened: as §1

Brassica campestris L. = experiment: as above; details: for g (Brassica campestris L.) effect on crop grade: foliage application, 320 g/ha
Procedure, shortened: as §1

[5] = application herbicide amount 320 g/ha
[6] = application to foliage, 256 g/ha

`Cn1nnnc1NC(=O)c1ccc(C(F)(F)F)n2c(-c3ccc(Cl)nc3)nnc12` [2-060] was tested, and the “b (effect on crop grade)” value [1, 5] was 5 (Herbicidal ratio of 90% or more (almost completely withered)), the “L (Apera spica-venti.) herbicidal effect grade” value (Apera spica-venti.) was 4 (Herbicidal ratio of 70% or more and less than 90%) and the “Q (Galium spurium) herbicidal effect grade” value (Galium spurium) was 4 (Herbicidal ratio of 70% or more and less than 90%). The “H (Echinochloa crus-galli var. crus-galli) herbicidal effect grade” value [2] was 5 (Herbicidal ratio of 90% or more (almost completely withered)), the “R (Veronica persica) herbicidal effect grade” value (Veronica persica) was 5 (Herbicidal ratio of 90% or more (almost completely withered)) and the “O (Chenopodium album) herbicidal effect grade” value (Chenopodium album) was 5 (Herbicidal ratio of 90% or more (almost completely withered)). For the same compound, the “I (Avena fatua) herbicidal effect grade” value (Avena fatua) was 4 (Herbicidal ratio of 70% or more and less than 90%), the “F (Digitaria ciliaris) herbicidal effect grade” value (Digitaria ciliaris) was 5 (Herbicidal ratio of 90% or more (almost completely withered)) and the “N (Amaranthus retroflexus) herbicidal effect grade” value (Amaranthus retroflexus) was 5 (Herbicidal ratio of 90% or more (almost completely withered)). For the same compound, the “G (Setaria viridis) herbicidal effect grade” value (Setaria viridis) was 5 (Herbicidal ratio of 90% or more (almost completely withered)), the “P (Stellaria media) herbicidal effect grade” value (Stellaria media) was 5 (Herbicidal ratio of 90% or more (almost completely withered)) and the “J (Alopecurus myosuroides) herbicidal effect grade” value (Alopecurus myosuroides) was 3 (Herbicidal ratio of 40% or more and less than 70%). The “K (Lolium multiflorum Lam.) herbicidal effect grade” value (Lolium multiflorum Lam.) was 3 (Herbicidal ratio of 40% or more and less than 70%), the “M (Abutilon theophrasti) herbicidal effect grade” value (Abutilon theophrasti) was 5 (Herbicidal ratio of 90% or more (almost completely withered)) and the “f (Beta vulgaris ssp. vulgaris) effect on crop grade” value [3] was 5 (Herbicidal ratio of 90% or more (almost completely withered)). The “d (directly sowed Oryza sativa) effect on crop grade” value [4] was 4 (Herbicidal ratio of 70% or more and less than 90%), the “b (Zea mays) effect on crop grade” value (Zea mays) was 5 (Herbicidal ratio of 90% or more (almost completely withered)) and the “c (Glycine max) effect on crop grade” value (Glycine max) was 2 (Herbicidal ratio of 20% or more and less than 40%). The “e (Triticum aestivum) effect on crop grade” value (from here on “e (Triticum aestivum) effect”) (Triticum aestivum) was 4 (Herbicidal ratio of 70% or more and less than 90%) and the “g (Brassica campestris L.) effect on crop grade” value (Brassica campestris L.) was 5 (Herbicidal ratio of 90% or more (almost completely withered)).
For `Cn1nnnc1NC(=O)c1ccc(C(F)(F)F)n2c(C=O)nnc12` [2-109], the “b (effect on crop grade)” value ([1]; application herbicide amount 260 g/ha) was 2 (Herbicidal ratio of 20% or more and less than 40%), the “herbicidal effect, L (Apera spica-venti.)” value (Apera spica-venti.; [6]) was 0 (Herbicidal ratio of 5% or less (almost no effect)) and the “herbicidal effect, Q (Galium spurium)” value (Galium spurium; [6]) was 3 (Herbicidal ratio of 40% or more and less than 70%). For the same compound, the “herbicidal effect, H (Echinochloa crus-galli var. crus-galli)” value [2, 6] was 4 (Herbicidal ratio of 70% or more and less than 90%), the “herbicidal effect, R (Veronica persica)” value (Veronica persica; [6]) was 5 (Herbicidal ratio of 90% or more (almost completely withered)) and the “herbicidal effect, O (Chenopodium album)” value (Chenopodium album; [6]) was 5 (Herbicidal ratio of 90% or more (almost completely withered)). The “herbicidal effect, I (Avena fatua)” value (Avena fatua; [6]) was 1 (Herbicidal ratio of 5% or more and less than 20%), the “herbicidal effect, F (Digitaria ciliaris)” value (Digitaria ciliaris; [6]) was 3 (Herbicidal ratio of 40% or more and less than 70%) and the “herbicidal effect, N (Amaranthus retroflexus)” value (Amaranthus retroflexus; [6]) was 5 (Herbicidal ratio of 90% or more (almost completely withered)). For the same compound, the “herbicidal effect, G (Setaria viridis)” value (Setaria viridis; [6]) was 2 (Herbicidal ratio of 20% or more and less than 40%), the “herbicidal effect, P (Stellaria media)” value (Stellaria media; [6]) was 5 (Herbicidal ratio of 90% or more (almost completely withered)) and the “herbicidal effect, J (Alopecurus myosuroides)” value (Alopecurus myosuroides; [6]) was 0 (Herbicidal ratio of 5% or less (almost no effect)). For the same compound, the “herbicidal effect, K (Lolium multiflorum Lam.)” value (Lolium multiflorum Lam.; [6]) was 1 (Herbicidal ratio of 5% or more and less than 20%), the “herbicidal effect, M (Abutilon theophrasti)” value (Abutilon theophrasti; [6]) was 5 (Herbicidal ratio of 90% or more (almost completely withered)) and the “effect on crop, f (Beta vulgaris ssp. vulgaris)” value [3, 6] was 5 (Herbicidal ratio of 90% or more (almost completely withered)). For the same compound, the “effect on crop, d (directly sowed Oryza sativa)” value [4, 6] was 4 (Herbicidal ratio of 70% or more and less than 90%), the “effect on crop, b (Zea mays)” value (Zea mays; [6]) was 1 (Herbicidal ratio of 5% or more and less than 20%) and the “effect on crop, c (Glycine max)” value (Glycine max; [6]) was 0 (Herbicidal ratio of 5% or less (almost no effect)). For the same compound, the “effect on crop, e (Triticum aestivum)” value (Triticum aestivum; [6]) was 1 (Herbicidal ratio of 5% or more and less than 20%) and the “effect on crop, g (Brassica campestris L.)” value (Brassica campestris L.; [6]) was 4 (Herbicidal ratio of 70% or more and less than 90%).
In the case of `CCOC(=O)Cc1nnc2c(C(=O)Nc3nnnn3C)ccc(C(F)(F)F)n12` [2-040], the “b (effect on crop grade)” value [1, 5] is reported as 4 (Herbicidal ratio of 70% or more and less than 90%), the “L (Apera spica-venti.) herbicidal effect grade” value (Apera spica-venti.) is reported as 3 (Herbicidal ratio of 40% or more and less than 70%) and the “Q (Galium spurium) herbicidal effect grade” value (Galium spurium) is reported as 4 (Herbicidal ratio of 70% or more and less than 90%). For the same compound, the “H (Echinochloa crus-galli var. crus-galli) herbicidal effect grade” value [2] was 5 (Herbicidal ratio of 90% or more (almost completely withered)), the “R (Veronica persica) herbicidal effect grade” value (Veronica persica) was 5 (Herbicidal ratio of 90% or more (almost completely withered)) and the “O (Chenopodium album) herbicidal effect grade” value (Chenopodium album) was 5 (Herbicidal ratio of 90% or more (almost completely withered)). For the same compound, the “I (Avena fatua) herbicidal effect grade” value (Avena fatua) was 3 (Herbicidal ratio of 40% or more and less than 70%), the “F (Digitaria ciliaris) herbicidal effect grade” value (Digitaria ciliaris) was 5 (Herbicidal ratio of 90% or more (almost completely withered)) and the “N (Amaranthus retroflexus) herbicidal effect grade” value (Amaranthus retroflexus) was 5 (Herbicidal ratio of 90% or more (almost completely withered)). For the same compound, the “G (Setaria viridis) herbicidal effect grade” value (Setaria viridis) was 3 (Herbicidal ratio of 40% or more and less than 70%), the “P (Stellaria media) herbicidal effect grade” value (Stellaria media) was 5 (Herbicidal ratio of 90% or more (almost completely withered)) and the “J (Alopecurus myosuroides) herbicidal effect grade” value (Alopecurus myosuroides) was 1 (Herbicidal ratio of 5% or more and less than 20%). For the same compound, the “K (Lolium multiflorum Lam.) herbicidal effect grade” value (Lolium multiflorum Lam.) was 1 (Herbicidal ratio of 5% or more and less than 20%), the “M (Abutilon theophrasti) herbicidal effect grade” value (Abutilon theophrasti) was 5 (Herbicidal ratio of 90% or more (almost completely withered)) and the “f (Beta vulgaris ssp. vulgaris) effect on crop grade” value [3] was 5 (Herbicidal ratio of 90% or more (almost completely withered)). The “d (directly sowed Oryza sativa) effect on crop grade” value [4] was 4 (Herbicidal ratio of 70% or more and less than 90%), the “b (Zea mays) effect on crop grade” value (Zea mays) was 4 (Herbicidal ratio of 70% or more and less than 90%) and the “c (Glycine max) effect on crop grade” value (Glycine max) was 1 (Herbicidal ratio of 5% or more and less than 20%). For the same compound, the “e (Triticum aestivum) effect” value (Triticum aestivum) was 2 (Herbicidal ratio of 20% or more and less than 40%) and the “g (Brassica campestris L.) effect on crop grade” value (Brassica campestris L.) was 3 (Herbicidal ratio of 40% or more and less than 70%).
In the case of `CSCCc1nnc2c(C(=O)Nc3nnnn3C)ccc(C(F)(F)F)n12` [2-057], the “b (effect on crop grade)” value [1, 5] is reported as 5 (Herbicidal ratio of 90% or more (almost completely withered)), the “L (Apera spica-venti.) herbicidal effect grade” value (Apera spica-venti.) is reported as 4 (Herbicidal ratio of 70% or more and less than 90%) and the “Q (Galium spurium) herbicidal effect grade” value (Galium spurium) is reported as 4 (Herbicidal ratio of 70% or more and less than 90%). For the same compound, the “H (Echinochloa crus-galli var. crus-galli) herbicidal effect grade” value [2] was 5 (Herbicidal ratio of 90% or more (almost completely withered)), the “R (Veronica persica) herbicidal effect grade” value (Veronica persica) was 5 (Herbicidal ratio of 90% or more (almost completely withered)) and the “O (Chenopodium album) herbicidal effect grade” value (Chenopodium album) was 5 (Herbicidal ratio of 90% or more (almost completely withered)). The “I (Avena fatua) herbicidal effect grade” value (Avena fatua) was 4 (Herbicidal ratio of 70% or more and less than 90%), the “F (Digitaria ciliaris) herbicidal effect grade” value (Digitaria ciliaris) was 5 (Herbicidal ratio of 90% or more (almost completely withered)) and the “N (Amaranthus retroflexus) herbicidal effect grade” value (Amaranthus retroflexus) was 5 (Herbicidal ratio of 90% or more (almost completely withered)). The “G (Setaria viridis) herbicidal effect grade” value (Setaria viridis) was 5 (Herbicidal ratio of 90% or more (almost completely withered)), the “P (Stellaria media) herbicidal effect grade” value (Stellaria media) was 5 (Herbicidal ratio of 90% or more (almost completely withered)) and the “J (Alopecurus myosuroides) herbicidal effect grade” value (Alopecurus myosuroides) was 4 (Herbicidal ratio of 70% or more and less than 90%). For the same compound, the “K (Lolium multiflorum Lam.) herbicidal effect grade” value (Lolium multiflorum Lam.) was 4 (Herbicidal ratio of 70% or more and less than 90%), the “M (Abutilon theophrasti) herbicidal effect grade” value (Abutilon theophrasti) was 5 (Herbicidal ratio of 90% or more (almost completely withered)) and the “f (Beta vulgaris ssp. vulgaris) effect on crop grade” value [3] was 5 (Herbicidal ratio of 90% or more (almost completely withered)). For the same compound, the “d (directly sowed Oryza sativa) effect on crop grade” value [4] was 5 (Herbicidal ratio of 90% or more (almost completely withered)), the “b (Zea mays) effect on crop grade” value (Zea mays) was 4 (Herbicidal ratio of 70% or more and less than 90%) and the “c (Glycine max) effect on crop grade” value (Glycine max) was 2 (Herbicidal ratio of 20% or more and less than 40%). For the same compound, the “e (Triticum aestivum) effect” value (Triticum aestivum) was 4 (Herbicidal ratio of 70% or more and less than 90%) and the “g (Brassica campestris L.) effect on crop grade” value (Brassica campestris L.) was 5 (Herbicidal ratio of 90% or more (almost completely withered)).
